O=C(N[C@@H](Cc1c[nH]c2ccccc12)C(=O)O)OCc1ccccc1
solubility (mole fraction)
Settings	283.15 K	288.15 K	293.15 K	298.15 K	303.15 K	308.15 K	313.15 K	318.15 K	323.15 K
in 2-butanone	0.133	0.143	0.152	0.161	0.173	0.182	0.196	0.205	0.221
in acetone	0.204	0.23	0.264	0.306	0.358	0.409	0.458	0.505	0.557
in acetonitrile	0.0197	0.025	0.0305	0.0428	0.06	0.0766	0.0967	0.117	0.134
in ethanol	0.0567	0.0689	0.0826	0.1	0.124	0.142	0.164	0.189	0.208
in ethyl acetate	0.0484	0.0559	0.0629	0.0707	0.0794	0.0906	0.103	0.118	0.133
in isobutanol	0.00972	0.0123	0.0177	0.0245	0.0302	0.0379	0.045	0.0547	0.0692
in isopropanol	0.0299	0.0351	0.0439	0.0536	0.0656	0.08	0.0917	0.109	0.125
in methyl acetate	0.0663	0.0737	0.0836	0.0968	0.112	0.125	0.141	0.162	0.182
in n-butanol	0.0231	0.0278	0.0334	0.0403	0.0526	0.0666	0.0784	0.0941	0.114
in n-pentanol	0.0181	0.0209	0.0252	0.0322	0.0393	0.0458	0.0536	0.0631	0.0717
in n-propanol	0.0283	0.0389	0.0502	0.064	0.0763	0.0881	0.104	0.123	0.141
in water	4.06e-05	5.32e-05	6.49e-05	7.79e-05	8.87e-05	9.81e-05	0.000109	0.000118	0.000125

From BigSolDB 2.1
